Data reported in paper PMC3079577 (Nature, 2010).

Experiments:
[1] = biological target: LeuT^K (Lys 288 Ala LeuT) (Aquifex aeolicus, UniProt O67854, K288A)
wild-type LeuT [2] = biological target: T1, wild-type LeuT (Aquifex aeolicus, UniProt O67854); experiment: Isothermal titration calorimetry, Leu binding to wild-type LeuT; conditions: ITC, 25 °C, pH 7.0
Tyr 108 Phe–LeuT^K [3] = biological target: T2, Tyr 108 Phe–LeuT^K (Aquifex aeolicus, UniProt O67854, K288A/Y108F); experiment: Isothermal titration calorimetry, Leu binding to Tyr 108 Phe mutant; conditions: ITC, 25 °C, pH 7.0
wild-type LeuT [4] = biological target: T1, wild-type LeuT; experiment: Equilibrium dialysis, [3H]Leu binding to wild-type LeuT; conditions: single-site fit, 23 °C, 6 h, listed as [^3H]Leu
Tyr 108 Phe–LeuT^K [5] = biological target: T2, Tyr 108 Phe–LeuT^K; experiment: Equilibrium dialysis, [3H]Leu binding to Tyr 108 Phe mutant; conditions: single-site fit, 23 °C, 6 h, listed as [^3H]Leu
wild-type LeuT [6] = biological target: T1, wild-type LeuT; experiment: Scintillation proximity assay, [3H]Leu binding to wild-type LeuT; conditions: SPA
LeuT Leu 400 Ala mutant = LeuT Leu 400 Ala mutant (Aquifex aeolicus, UniProt O67854, L400A); experiment: Scintillation proximity assay, [3H]Leu binding to Leu 400 Ala mutant; conditions: SPA, 400 nM protein, Fig 2b; listed as [^3H]Leu
LeuT Leu 400 Cys mutant = LeuT Leu 400 Cys mutant (Aquifex aeolicus, UniProt O67854, L400C); experiment: Scintillation proximity assay, [3H]Leu binding to Leu 400 Cys mutant; conditions: SPA, 400 nM protein, Fig 2b; listed as [^3H]Leu
LeuT = conditions: cited from earlier work
[7] = two-site, ordered-binding model fit, parameters not well fitted

## C[C@H](N)C(=O)O [Ala, alanine]
[1]; read-out: Km (Michaelis constant), pH 5, 200 mM inward Na+ gradient, 27 °C, no valinomycin
  Km: 0.79 ± 0.06 µM
[1]; steady-state data fitted to the Hill equation
  Hill slope nH: 0.96±0.03
[1]; two-site, ordered-binding model fit
  Vmax: 10,965±308 pmol min^−1 mg^−1
[1]; [7]
  apparent dissociation constant KS: 6.8 ± 22 nM
  dissociation coefficient α: 114±360

## CC(C)C[C@H](N)C(=O)O [Leu, L-leucine]
wild-type LeuT [2]
  ΔH of binding: -3.93 ± 0.02 kcal/mol
  −TΔS of binding: -6.01 ± 0.13 kcal/mol
wild-type LeuT [2]; single-site model
  Stoichiometry N (substrate-to-LeuT): 0.70±0.01 mol/mol LeuT
Tyr 108 Phe–LeuT^K [3]
  ΔH of binding: -1.92 ± 0.03 kcal/mol
Tyr 108 Phe–LeuT^K [3]; single-site model
  Stoichiometry N: 0.79±0.01 mol/mol LeuT
wild-type LeuT [4]
  Stoichiometry: 0.73±0.03 mol/mol LeuT
Tyr 108 Phe–LeuT^K [5]
  Stoichiometry: 0.72±0.02 mol/mol LeuT
wild-type LeuT [6]; 400 nM LeuT (~20 Kd), 25–1,200 nM [3H]Leu, Fig 2b
  Stoichiometry: about 0.8 mol/mol LeuT
LeuT Leu 400 Ala mutant
  Stoichiometry: about 0.8 mol/mol LeuT
LeuT Leu 400 Cys mutant
  Stoichiometry: about 0.8 mol/mol LeuT

## CN(C)CCCN1c2ccccc2CCc2ccc(Cl)cc21 [clomipramine]
wild-type LeuT [6]; 10 nM LeuT, 1 mM clomipramine
  Effect of clomipramine on binding of Leu to wild-type LeuT: no change
LeuT
  Mode of inhibition of LeuT transport: non-competitive inhibitor
